Literature values, collected in US11992527B2, “Extracellular vesicles for vaccine delivery” (LONZA SALES AG, priority 2019, dated 2024).

Columns and labels:
[1] = tested on: human A2058 melanoma cells; conditions: in vitro, read-out: IC50, inhibition of LPA-1-induced chemotaxis
[2] = tested on: LPA-induced histamine release; conditions: in mice
mouse LPA-1/CHO cells = conditions: in vitro, read-out: IC50, inhibition of LPA-1-induced chemotaxis
[3] = in vivo
[4] = tested on: BALF collagen and protein; macrophage and lymphocyte infiltration induced by bleomycin
[5] = Phase 2 study (Palmer 2018)

Compound	IC50 [1] [µM]	ED50, block of LPA-induced histamine release [2] [mg/kg]	IC50 (mouse LPA-1/CHO cells) [µM]	oral bioavailability [3]	ED50, reduction of BALF collagen and protein ([4]; in lungs) [mg/kg]	macrophage and lymphocyte infiltration induced by bleomycin ([4]; in mice)	toxicity that led to early termination of the Phase 2 study [5]
Cc1noc(-c2ccc(-c3ccc(CC(=O)O)cc3)cc2)c1NC(=O)O[C@H](C)c1ccccc1 [AM095, 1,1′-Biphenyl]-4-acetic acid, 4′-[3-methyl-4-[[[(1R)-1-phenylethoxy]carbonyl]amino]-5-isoxazolyl[ ]-]	0.23	8.3	0.78	orally bioavailable	10	decrease both macrophage and lymphocyte infiltration	–
Cc1noc(-c2ccc(-c3ccc(C4(C(=O)O)CC4)cc3)cc2)c1NC(=O)O[C@H](C)c1ccccc1 [AM152, Cyclopropanecarboxylic acid, 1-[4′-[3-methyl-4-[[[(1R)-1-phenylethoxy]carbonyl]amino]-5-isoxazolyl][1,1′-biphenyl]-4-yl]-]	–	–	–	–	–	–	gall bladder toxicity and early signs of liver toxicity
